The values below come from US10899732B2, “Substituted benzamides useful as sodium channel blockers” (GENENTECH, INC., priority 2015, dated 2021).

Molecules are shown by their SMILES. pIC50: −log10 of the molar value. Where a name gives a salt, the structure may show the parent alone.

The target of one experiment is T1, hNav1.7 (Homo sapiens, UniProt Q15858).
T1 construct: expressed in transfected cells
As to the kind of experiment: Tritiated sulfonamide competitive binding to membranes from cells expressing hNav1.7 and the β1 subunit (LBA). Conditions: competition with 100 pM [3H]compound, 18 h, room temperature; read-out: Nav1.7 (LBA). How it is done:
Tritiated Sulfonamide Binding to Membranes Isolated from Cells that Heterologously Express hNav1.7 and the β1 Subunit
Preparation of membranes containing recombinantly expressed sodium channels: Frozen recombinant cell pellets were thawed on ice and diluted to 4 times the cell pellet weight with ice cold 50 mM Tris HCl, pH 7.4 buffer. The cell suspensions were homogenized on ice using a motorized glass dounce homogenizer. Homogenates were further diluted 8.4 times with ice cold 50 mM Tris HCl, pH 7.4 buffer and then centrifuged at 200×g at 4° C. for 15 min. The supernatants were collected and centrifuged at 10000×g at 4° C. for 50 min. The pellets were then re-suspended in 100 mM NaCl, 20 mM Tris HCl, pH 7.4 buffer containing 1% v/v protease inhibitors (Calbiochem) and re-homogenized on ice. The homogenized membranes were then processed through a syringe equipped with a 26 gauge needle. Protein concentrations were determined by Bradford Assay and the membranes were stored at −80° C.
Saturation experiments. A competitive NaV1.7 inhibitor having a methyl group was tritiated. Three tritiums were incorporated in place of methyl hydrogens to generate [^3H]compound. Binding of this radioligand was preformed in 5 mL borosilicate glass test tubes at room temperature. Binding was initiated by adding membranes to increasing concentrations of [^3H]compound in 100 mM NaCl, 20 mM Tris HCl, pH 7.4 buffer containing 0.01% w/v bovine serum albumin (BSA) for 18 h. Non-specific binding was determined in the presence of 1 μM unlabelled compound. After 18 h, the reactants were filtered through GF/C glass fiber filters presoaked in 0.5% w/v polyethylene imine. Filters were washed with 15 mL ice cold 100 mM NaCl, 20 mM Tris HCl, pH 7.4 buffer containing 0.25% BSA to separate bound from free ligand. [^3H]compound bound to filters was quantified by liquid scintillation counting.
Binding reactions were performed in 96-well polypropylene plates at room temperature for 18 h. In 360 μL, membranes were incubated with 100 pM [^3H]compound and increasing concentrations of Test Compound. Non-specific binding was defined in the presence of 1 μM unlabelled compound. Reactions were transferred and filtered through 96-well glass fiber/C filter plates presoaked with 0.5% polyethylene imine. The filtered reactions were washed 5 times with 200 μL ice cold buffer containing 0.25% BSA. Bound radioactivity was determined by liquid scintillation counting.
Data Analysis: For saturation experiments, non-specific binding was subtracted from total binding to provide specific binding and these values were recalculated in terms of pmol ligand bound per mg protein. Saturation curves were constructed and dissociation constants were calculated using the single site ligand binding model: Beq=(Bmax*X)/(X+Kd), where Beq is the amount of ligand bound at equilibrium, Bmax is the maximum receptor density, Kd is the dissociation constant for the ligand, and X is the free ligand concentration. For competition studies percent inhibition was determined and IC50 values were calculated using a 4 parameter logistic model (% inhibition=(A+((B−A)/(1+((x/C)^D)))) using XLfit, where A and B are the maximal and minimum inhibition respectively, C is the IC50 concentration and D is the (Hill) slope.

Another experiment has as its target T2, NaV1.7 (Homo sapiens, UniProt Q15858).
T2 construct: expression vector containing the full-length cDNA coding for the desired human sodium channel α-subunit; expressed in transfected cells; host or cells: HEK-293
As to the kind of experiment: Patch voltage clamp electrophysiology assay (EP), NaV1.7 in HEK-293 cells. Conditions: HEK-293, β1 coexpressed, held at -60 mV (inactivated state). Format: cell-based. The text has this: (§1) Electrophysiological Assay (EP) (In Vitro Assay)
(§2) Patch voltage clamp electrophysiology allows for the direct measurement and quantification of block of voltage-gated sodium channels (NaV's), and allows the determination of the time- and voltage-dependence of block which has been interpreted as differential binding to the resting, open, and inactivated states of the sodium channel (Hille, B., Journal of General Physiology (1977), 69: 497-515).
(§3) The following patch voltage clamp electrophysiology studies were performed on representative compounds of the invention using human embryonic kidney cells (HEK), permanently transfected with an expression vector containing the full-length cDNA coding for the desired human sodium channel α-subunit, grown in culture media containing 10% FBS, 1% PSG, and 0.5 mg/mL G418 at 37° C. with 5% CO2. […] NaV1.7 and NaV1.5 cDNAs (NM_002977 and AC137587; SCN5A, respectively) were stably expressed in HEK-293 cells. The β1 subunit was coexpressed in both the NaV1.7 and NaV1.5 cell lines.
(§4) Sodium currents were measured using the patch clamp technique in the whole-cell configuration using either a PatchXpress automated voltage clamp or manually using an Axopatch 200B (Axon Instruments) or Model 2400 (A-M systems) amplifier. The manual voltage clamp protocol was as follows: Borosilicate glass micropipettes were fire-polished to a tip diameter yielding a resistance of 2-4 Mohms in the working solutions. The pipette was filled with a solution comprised of: 5 mM NaCl, 10 mM CsCl, 120 mM CsF, 0.1 mM CaCl2, 2 mM MgCl2, 10 mM HEPES, 10 mM EGTA; and adjusted to pH 7.2 with CsOH. The external solution had the following composition: 140 mM NaCl, 5 mM KCl, 2 mM CaCl2, 1 mM MgCl2, 10 mM HEPES; and adjusted to pH 7.4 with NaOH. In some studies, the external sodium was reduced by equimolar replacement with choline. Osmolarity in the CsF internal and NaCl external solutions was adjusted to 300 mOsm/kg and 310 mOsm/kg with glucose, respectively. All recordings were performed at ambient temperature in a bath chamber with a volume of 150 μL. Control sodium currents were measured in 0.5% DMSO. Controls and representative compounds of the invention were applied to the recording chamber through a 4-pinch or 8-pinch valve bath perfusion system manufactured by ALA Scientific Instruments.
(§5) Currents were recorded at 40 kHz sampling frequency, filtered at […], and stored using a Digidata-1322A analogue/digital interface with the pClamp software (Axon Instruments). Series resistance compensation was applied (60-80%). […] All statistics in this study are given as mean±SD.
(§6) The membrane potential was maintained at a voltage where inactivation of the channel is complete (which was −60 mV for both NaV1.7 and NaV1.5). The voltage is then stepped back to a very negative (Vhold=[…]) voltage for 20 ms and then a test pulse is applied to quantify the compound block. The 20 ms brief repolarization was long enough for compound-free channels to completely recover from fast inactivation, but the compound-bound channels recovered more slowly such that negligible recovery could occur during this interval. The percent decrease in sodium current following wash-on of compound was taken as the percent block of sodium channels.

In the next experiment the target is T3, NaV1.5 (Homo sapiens, UniProt Q14524).
T3 construct: expression vector containing the full-length cDNA coding for the desired human sodium channel α-subunit; expressed in transfected cells; host or cells: HEK-293
As to the kind of experiment: Patch voltage clamp electrophysiology assay (EP), NaV1.5 in HEK-293 cells. Conditions: HEK-293, β1 coexpressed, held at -60 mV (inactivated state). Format: cell-based.
From the text: as §1, §2, §3, §4, §5, §6

T1 sequence (Q15858 1-1977 isoform Q15858-3): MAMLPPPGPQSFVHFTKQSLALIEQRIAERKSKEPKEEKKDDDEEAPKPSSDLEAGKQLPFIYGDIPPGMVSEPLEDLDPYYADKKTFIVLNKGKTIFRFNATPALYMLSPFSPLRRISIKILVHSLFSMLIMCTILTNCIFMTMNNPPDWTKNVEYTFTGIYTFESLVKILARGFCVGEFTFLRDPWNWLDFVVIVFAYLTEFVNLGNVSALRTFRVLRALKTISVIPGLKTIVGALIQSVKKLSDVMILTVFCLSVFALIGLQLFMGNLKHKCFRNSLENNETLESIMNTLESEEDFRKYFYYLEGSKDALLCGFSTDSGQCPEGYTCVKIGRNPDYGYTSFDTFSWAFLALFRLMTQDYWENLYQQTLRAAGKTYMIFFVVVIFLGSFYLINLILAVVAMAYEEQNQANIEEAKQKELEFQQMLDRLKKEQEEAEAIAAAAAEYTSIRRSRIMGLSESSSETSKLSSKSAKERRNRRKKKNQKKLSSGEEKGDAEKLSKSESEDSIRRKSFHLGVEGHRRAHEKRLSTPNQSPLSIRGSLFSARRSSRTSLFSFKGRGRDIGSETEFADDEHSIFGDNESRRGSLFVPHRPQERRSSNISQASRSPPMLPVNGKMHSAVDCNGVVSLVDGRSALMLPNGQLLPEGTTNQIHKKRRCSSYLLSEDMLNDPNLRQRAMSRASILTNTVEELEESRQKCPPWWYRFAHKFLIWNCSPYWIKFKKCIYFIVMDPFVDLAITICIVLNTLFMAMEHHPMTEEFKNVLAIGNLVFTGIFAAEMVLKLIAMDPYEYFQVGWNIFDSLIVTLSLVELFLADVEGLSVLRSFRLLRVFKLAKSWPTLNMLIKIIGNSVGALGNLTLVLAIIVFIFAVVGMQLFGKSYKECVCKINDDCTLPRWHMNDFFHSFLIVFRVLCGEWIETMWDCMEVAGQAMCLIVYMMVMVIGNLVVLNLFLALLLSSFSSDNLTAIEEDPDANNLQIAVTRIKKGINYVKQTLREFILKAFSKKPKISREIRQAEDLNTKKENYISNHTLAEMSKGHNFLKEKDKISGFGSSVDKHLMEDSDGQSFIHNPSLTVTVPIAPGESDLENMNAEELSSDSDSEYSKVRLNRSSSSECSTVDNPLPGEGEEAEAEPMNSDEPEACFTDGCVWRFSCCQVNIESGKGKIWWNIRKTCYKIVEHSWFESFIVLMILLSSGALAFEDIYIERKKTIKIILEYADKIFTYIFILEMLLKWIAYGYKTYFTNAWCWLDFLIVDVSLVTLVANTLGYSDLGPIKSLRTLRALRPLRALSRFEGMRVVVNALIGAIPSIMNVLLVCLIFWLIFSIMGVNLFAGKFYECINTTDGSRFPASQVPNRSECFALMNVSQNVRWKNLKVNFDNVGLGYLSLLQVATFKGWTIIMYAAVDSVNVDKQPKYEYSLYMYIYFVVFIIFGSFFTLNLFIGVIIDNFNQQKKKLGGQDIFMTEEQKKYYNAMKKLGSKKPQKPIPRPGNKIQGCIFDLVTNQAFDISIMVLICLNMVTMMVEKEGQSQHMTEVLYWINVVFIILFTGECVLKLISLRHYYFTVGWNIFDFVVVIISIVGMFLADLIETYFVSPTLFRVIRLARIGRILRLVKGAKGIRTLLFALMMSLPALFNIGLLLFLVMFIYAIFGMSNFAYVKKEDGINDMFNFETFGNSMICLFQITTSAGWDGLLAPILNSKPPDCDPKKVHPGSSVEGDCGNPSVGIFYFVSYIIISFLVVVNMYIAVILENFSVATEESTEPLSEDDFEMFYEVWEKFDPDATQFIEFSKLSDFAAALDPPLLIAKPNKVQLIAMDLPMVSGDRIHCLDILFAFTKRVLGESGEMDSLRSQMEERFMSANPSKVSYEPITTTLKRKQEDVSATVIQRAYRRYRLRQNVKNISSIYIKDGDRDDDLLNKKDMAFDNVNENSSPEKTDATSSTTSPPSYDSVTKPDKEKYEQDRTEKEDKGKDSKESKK
T1 sequence (Q07699 19-218 partner): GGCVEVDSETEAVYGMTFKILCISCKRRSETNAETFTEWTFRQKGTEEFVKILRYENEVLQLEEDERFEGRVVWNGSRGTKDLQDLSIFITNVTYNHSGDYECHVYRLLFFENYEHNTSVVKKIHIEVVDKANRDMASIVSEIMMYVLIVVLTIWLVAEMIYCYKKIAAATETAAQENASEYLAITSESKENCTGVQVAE
T2 sequence (Q15858 1-1977 isoform Q15858-3): as the sequence (Q15858 1-1977 isoform Q15858-3) above
T2 sequence (Q07699 19-218 partner): as the sequence (Q07699 19-218 partner) above
T3 sequence (Q14524 whole entry): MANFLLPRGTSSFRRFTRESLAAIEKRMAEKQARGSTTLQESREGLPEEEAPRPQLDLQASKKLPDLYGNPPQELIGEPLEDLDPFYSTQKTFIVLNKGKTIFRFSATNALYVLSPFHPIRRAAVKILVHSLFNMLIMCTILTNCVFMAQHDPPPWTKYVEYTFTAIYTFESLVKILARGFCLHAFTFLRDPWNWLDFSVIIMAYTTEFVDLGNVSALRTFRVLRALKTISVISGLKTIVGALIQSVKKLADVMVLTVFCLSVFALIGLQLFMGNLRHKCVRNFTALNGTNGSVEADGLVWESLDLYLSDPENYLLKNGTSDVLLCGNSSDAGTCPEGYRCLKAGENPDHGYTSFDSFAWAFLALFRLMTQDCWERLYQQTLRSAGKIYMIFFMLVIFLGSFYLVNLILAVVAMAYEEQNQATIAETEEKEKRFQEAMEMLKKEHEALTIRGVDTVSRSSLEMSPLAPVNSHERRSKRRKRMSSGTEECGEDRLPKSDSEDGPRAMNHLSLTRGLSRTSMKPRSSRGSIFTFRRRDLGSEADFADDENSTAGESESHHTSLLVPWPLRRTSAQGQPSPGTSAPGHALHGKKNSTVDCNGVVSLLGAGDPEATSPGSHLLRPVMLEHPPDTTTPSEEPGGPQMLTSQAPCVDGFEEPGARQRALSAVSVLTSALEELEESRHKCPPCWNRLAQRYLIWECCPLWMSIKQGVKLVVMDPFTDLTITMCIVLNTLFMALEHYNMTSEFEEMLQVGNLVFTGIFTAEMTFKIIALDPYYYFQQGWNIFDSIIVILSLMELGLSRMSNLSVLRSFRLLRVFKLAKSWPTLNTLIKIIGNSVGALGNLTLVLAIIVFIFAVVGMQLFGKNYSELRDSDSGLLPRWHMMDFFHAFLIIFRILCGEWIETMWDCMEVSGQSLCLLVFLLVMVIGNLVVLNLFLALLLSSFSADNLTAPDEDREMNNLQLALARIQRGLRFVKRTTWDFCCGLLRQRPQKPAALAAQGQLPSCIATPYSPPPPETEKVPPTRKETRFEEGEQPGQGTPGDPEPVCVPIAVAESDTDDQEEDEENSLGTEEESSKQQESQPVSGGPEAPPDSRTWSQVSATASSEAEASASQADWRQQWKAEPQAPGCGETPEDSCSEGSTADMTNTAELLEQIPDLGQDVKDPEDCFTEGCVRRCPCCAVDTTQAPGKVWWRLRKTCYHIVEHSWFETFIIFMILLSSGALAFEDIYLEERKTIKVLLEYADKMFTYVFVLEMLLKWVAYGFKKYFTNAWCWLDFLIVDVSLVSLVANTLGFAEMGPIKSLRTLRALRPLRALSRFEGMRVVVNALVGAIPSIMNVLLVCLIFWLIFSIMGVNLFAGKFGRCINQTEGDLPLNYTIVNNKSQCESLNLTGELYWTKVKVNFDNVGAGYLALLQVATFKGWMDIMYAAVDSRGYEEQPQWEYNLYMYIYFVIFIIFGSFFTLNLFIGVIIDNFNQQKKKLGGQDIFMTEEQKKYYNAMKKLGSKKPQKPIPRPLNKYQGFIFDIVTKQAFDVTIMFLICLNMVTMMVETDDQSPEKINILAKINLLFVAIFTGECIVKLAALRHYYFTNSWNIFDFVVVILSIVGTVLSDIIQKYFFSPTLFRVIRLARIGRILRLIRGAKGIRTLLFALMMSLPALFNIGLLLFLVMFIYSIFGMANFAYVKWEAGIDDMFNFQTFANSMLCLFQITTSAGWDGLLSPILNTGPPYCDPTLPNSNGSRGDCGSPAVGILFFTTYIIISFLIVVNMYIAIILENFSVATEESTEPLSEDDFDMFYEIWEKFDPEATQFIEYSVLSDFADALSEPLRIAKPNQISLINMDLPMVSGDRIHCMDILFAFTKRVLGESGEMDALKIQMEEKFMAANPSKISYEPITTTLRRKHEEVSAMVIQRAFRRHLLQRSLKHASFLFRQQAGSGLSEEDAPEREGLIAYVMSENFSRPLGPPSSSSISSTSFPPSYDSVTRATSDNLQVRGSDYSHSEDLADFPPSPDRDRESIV

For the compound `Cc1nn(C2CCN(Cc3cc(OC(F)(F)F)ccc3Br)CC2)c2cc(F)c(C(=O)NS(=O)(=O)C3CC3)cc12` [Example 7, 1-(1-(2-bromo-5-(trifluoromethoxy)benzyl)piperidin-4-yl)-N-(cyclopropylsulfonyl)-6-fluoro-3-methyl-1H-indazole-5-carboxamide 2,2,2-trifluoroacetate], the pIC50 at hNav1.7 is 8.30; on NaV1.7 it was 8.05; on NaV1.5 it was 6.20.

For the compound `Cc1nn(C2CCN(Cc3cc(Cl)ccc3C(F)(F)F)CC2)c2cc(F)c(C(=O)NS(=O)(=O)C3CC3)cc12` [Example 8, 1-(1-(5-chloro-2-(trifluoromethyl)benzyl)piperidin-4-yl)-N-(cyclopropylsulfonyl)-6-fluoro-3-methyl-1H-indazole-5-carboxamide], the pIC50 on hNav1.7 is 8.30; at NaV1.7, 7.59; against NaV1.5, 6.21.

`Cc1nn(C2CCN([C@H](C)c3cc(Cl)cc(Cl)c3)CC2)c2cc(F)c(C(=O)NS(=O)(=O)C3CC3)cc12` [Example 9, (R)-N-(cyclopropylsulfonyl)-1-(1-(1-(3,5-dichlorophenyl)ethyl)piperidin-4-yl)-6-fluoro-3-methyl-1H-indazole-5-carboxamide]: the pIC50 was 8.22 at hNav1.7, 7.34 against NaV1.7 and 5.08 at NaV1.5.

On to `Cc1nn(C2CCN([C@@H](C)c3cc(Cl)cc(Cl)c3)CC2)c2cc(F)c(C(=O)NS(=O)(=O)C3CC3)cc12` [Example 10, (S)-N-(cyclopropylsulfonyl)-1-(1-(1-(3,5-dichlorophenyl)ethyl)piperidin-4-yl)-6-fluoro-3-methyl-1H-indazole-5-carboxamide], for which the pIC50 on hNav1.7 was 8.00; against NaV1.7, 7.48; at NaV1.5, 4.85.

For `Cc1nn([C@@H]2CCN(Cc3cc(Cl)cc(OC(F)(F)F)c3)C2)c2cc(F)c(C(=O)NS(=O)(=O)C3CC3)cc12` [Example 11, (R)-1-(1-(3-chloro-5-(trifluoromethoxy)benzyl)pyrrolidin-3-yl)-N-(cyclopropylsulfonyl)-6-fluoro-3-methyl-1H-indazole-5-carboxamide 2,2,2-trifluoroacetate], the pIC50 at hNav1.7 was 7.89; against NaV1.7 it was 7.64; against NaV1.5, 6.10.

In the case of `Cc1nn([C@@H]2CCN(Cc3cc(Cl)ccc3C(F)(F)F)C2)c2cc(F)c(C(=O)NS(=O)(=O)C3CC3)cc12` [Example 12, (R)-1-(1-(5-chloro-2-(trifluoromethyl)benzyl)pyrrolidin-3-yl)-N-(cyclopropylsulfonyl)-6-fluoro-3-methyl-1H-indazole-5-carboxamide 2,2,2-trifluoroacetate], the values for the pIC50 at hNav1.7, against NaV1.7 and on NaV1.5 were 8.30, 7.49 and 6.29, respectively.

`Cc1nn(C2CCN(c3ccc(Cl)c(C(F)(F)F)n3)CC2)c2cc(F)c(C(=O)NS(=O)(=O)C3CC3)cc12` [Example 13, 1-(1-(5-chloro-6-(trifluoromethyl)pyridin-2-yl)piperidin-4-yl)-N-(cyclopropylsulfonyl)-6-fluoro-3-methyl-1H-indazole-5-carboxamide 2,2,2-trifluoroacetate]: the pIC50 was 7.82 at hNav1.7, 6.60 at NaV1.7 and 5.62 at NaV1.5.

As to `Cc1nn(C2CN(Cc3cc(Cl)cc(OC(F)(F)F)c3)C2)c2cc(F)c(C(=O)NS(C)(=O)=O)cc12` [Example 14, 1-(1-(3-chloro-5-(trifluoromethoxy)benzyl)azetidin-3-yl)-6-fluoro-3-methyl-N-(methylsulfonyl)-1H-indazole-5-carboxamide], the pIC50 on hNav1.7 is 7.49; at NaV1.7, 6.40; against NaV1.5 it was 4.89.

`Cc1nn(C2CN(Cc3cc(Cl)cc(OC(F)(F)F)c3)C2)c2cc(F)c(C(=O)NS(=O)(=O)C3CC3)cc12` [Example 15, 1-(1-(3-chloro-5-(trifluoromethoxy)benzyl)azetidin-3-yl)-N-(cyclopropylsulfonyl)-6-fluoro-3-methyl-1H-indazole-5-carboxamide]: the pIC50 on hNav1.7 was 7.96; on NaV1.7, 7.06; on NaV1.5, 5.49.

Take `Cc1nn([C@@H]2CCN([C@H](C)c3cc(Cl)cc(Cl)c3)C2)c2cc(F)c(C(=O)NS(C)(=O)=O)cc12` [Example 16, 1-((R)-1-((R)-1-(3,5-dichlorophenyl)ethyl)pyrrolidin-3-yl)-6-fluoro-3-methyl-N-(methylsulfonyl)-1H-indazole-5-carboxamide, trifluoroacetic acid salt]: the pIC50 was 7.77 at hNav1.7, 7.00 against NaV1.7 and 4.89 at NaV1.5.

As for `Cc1nn([C@@H]2CCN([C@H](C)c3cc(Cl)cc(Cl)c3)C2)c2cc(F)c(C(=O)NS(=O)(=O)C3CC3)cc12` [Example 17, N-(cyclopropylsulfonyl)-1-((R)-1-((R)-1-(3,5-dichlorophenyl)ethyl)pyrrolidin-3-yl)-6-fluoro-3-methyl-1H-indazole-5-carboxamide 2,2,2-trifluoroacetate], the pIC50 at hNav1.7 was 8.22; against NaV1.7 it was 7.35; against NaV1.5, 6.06.

As for `Cc1nn([C@@H]2CCN([C@@H](C)c3cc(Cl)cc(Cl)c3)C2)c2cc(F)c(C(=O)NS(C)(=O)=O)cc12` [Example 18, 1-((R)-1-((S)-1-(3,5-dichlorophenyl)ethyl)pyrrolidin-3-yl)-6-fluoro-3-methyl-N-(methylsulfonyl)-1H-indazole-5-carboxamide, trifluoroacetic acid salt], the pIC50 at hNav1.7 is 7.40; on NaV1.7, 6.82; at NaV1.5 it was 4.77.
